Entries after “also recorded” stand apart in the source; their conditions may differ.
Legend:
Format in all cases: physicochemical
[1] = Moisture uptake of anhydrate, monohydrate and dihydrate at room temperature, 75% relative humidity
Procedure: When samples of the anhydrate and monohydrate are stored at room temperature and 75% relative humidity they absorb moisture rapidly to form the dihydrate (8% water) in about 24 hours.

[2] = Compressed disc (intrinsic) dissolution in water at 37° C.; conditions: slope between 4 and 10 minutes, 150 rpm, hydrochloride
Procedure: Compressed disc dissolution studies were carried out by means of the procedure developed by Hamlin et al., J. Pharm, Sci., 51, 432(1962). A 300 mg. sample of powder was compressed against a flat surface at 3000 psi. for 2 minutes into a flat round disc using a tablet die of 7/16 inch diameter. The die holding the compressed disc was stoppered at the open end and placed into a plastic holder. This assembly was then placed into a jar containing 1000 ml. of water equilibrated at 37° C. The stirring rate of a teflon paddle centered in the jar was maintained at 150 revolutions per minute. The solution was pumped continuously through a Millipore filter ([…] pore size) into a flow cell of a Beckman Acta II spectrophotometer which automatically recorded any absorbance changes at 246 nm.
Table VI compares the intrinsic dissolution rates of various forms of prazosin hydrochloride. The rates were determined from the slopes of the compressed disc dissolution profiles between 4 and 10 minutes.

[3] = Hygroscopicity: water content (Karl Fischer) of samples on exposure to humidity; conditions: for Water Content: 37° C.; for hygroscopicity (in words): compared with the other forms
Procedure: Since moisture uptake affects integrity of a drug form, the α-, β- and γ- crystalline polymorphs of prazosin hydrochloride were compared for their relative hygroscopicity. Samples of each polymorph were placed in an open beaker and stored in a chamber maintained at 37° C. and 75% relative humidity. Portions were withdrawn periodically and their water content determined by the Karl Fischer method.

[4] = as above; conditions: room temperature, 20% relative humidity, initially 13.5% water
[5] = Conversion to hydrate on contact with water (microscopy, trituration); conditions: drop of water on microscope slide or excess of water, hydrochloride
Text: When samples of the α-, β- and γ- polymorphs are triturated with water the resulting product in each case is found to give an infrared spectrum identical to that of the prazosin hydrochloride hydrates.
The β-form consisted of dark, monoclinic crystals, while the γ-form and polyhydrate are both needle-like crystals.
This is in agreement with the above mentioned change in the infrared spectra of the α-, β-, γ- polymorphs to that of the hydrates of prazosin hydrochloride upon trituration of each of the crystalline polymorphs with water. Stability Studies

[6] = 5 days, 75% R.H., hydrochloride
[7] = 12 days, 75% R.H., hydrochloride
[8] = 25 days, 75% R.H., hydrochloride
[9] = 34 days, 75% R.H., hydrochloride

In the case of COc1cc2nc(N3CCN(C(=O)c4ccco4)CC3)nc(N)c2cc1OC.Cl [anhydrate, 2-[4-(2-furoyl)piperazin-1-yl]-4-amino-6,7-dimethoxyquinazoline hydrochloride], the “water content on storage (dihydrate formed)” value ([1]; about 24 hours, room temperature, 75% relative humidity) is reported as 8%, the “time to form the dihydrate” value ([1]; room temperature, 75% relative humidity) is reported as “about 24 hours” and the “Intrinsic Dissolution Rate” value ([2]; listed as Anhydrate) is reported as 2.35 μg/liter sec.
COc1cc2nc(N3CCN(C(=O)c4ccco4)CC3)nc(N)c2cc1OC.Cl [dihydrate, 2-[4-(2-furoyl)piperazin-1-yl]-4-amino-6,7-dimethoxyquinazoline hydrochloride] showed an equilibrium water content ([1]; after 4 days, room temperature, 75% relative humidity) of 13.5%.
In the case of COc1cc2nc(N3CCN(C(=O)c4ccco4)CC3)nc(N)c2cc1OC.Cl [methanolate, 2-[4-(2-furoyl)piperazin-1-yl]-4-amino-6,7-dimethoxyquinazoline hydrochloride], the “Intrinsic Dissolution Rate” value ([2]; listed as Methanolate) is reported as 2.68 μg/liter sec.
For COc1cc2nc(N3CCN(C(=O)c4ccco4)CC3)nc(N)c2cc1OC.Cl [monohydrate, 2-[4-(2-furoyl)piperazin-1-yl]-4-amino-6,7-dimethoxyquinazoline hydrochloride], the “reversion upon exposure to moist air (in words)” value ([1]; exposure to moist air) was “revert to polyhydrate”.
For COc1cc2nc(N3CCN(C(=O)c4ccco4)CC3)nc(N)c2cc1OC.Cl [polyhydrate, 2-[4-(2-furoyl)piperazin-1-yl]-4-amino-6,7-dimethoxyquinazoline hydrochloride], the Water Content ([3]; 10 days, 75% relative humidity, initially 13.7% water) was 13.2%, the Water Content ([3]; 23 days, 75% relative humidity, initially 13.7% water) was 13.4% and the moisture ([3]; other samples exposed to high humidity) was “up to 15%”. The “Intrinsic Dissolution Rate” value ([2]; listed as Polyhydrate) was 2.57 μg/liter sec, the Water Content ([4]; 18 days) was 13.0% and the Water Content ([4]; 35 days) was 13.1%.
With COc1cc2nc(N3CCN(C(=O)c4ccco4)CC3)nc(N)c2cc1OC.Cl [α-form, 2-[4-(2-furoyl)piperazin-1-yl]-4-amino-6,7-dimethoxyquinazoline hydrochloride] the “Water Content” value [3, 6] was 0.32 % by Weight, the “Water Content” value [3, 7] was 0.85 % by Weight and the “Water Content” value [3, 8] was 1.18 % by Weight. For the same molecule, the “Water Content” value [3, 9] was 1.54 % by Weight, the “hygroscopicity (in words)” value ([3]; hydrochloride) was “relatively non-hydroscopic when compared with the β- and γ-forms; also recorded: non-hygroscopic” and the “Intrinsic Dissolution Rate” value ([2]; listed as α-) was 3.25 μg/liter sec. The “conversion to hydrate on contact with water (in words)” value (“conversion to hydrate on contact” for short) [5] was “converted to the polyhydrate” and the “conversion to hydrate on contact” value ([5]; listed as α-) was “sharp needle-like crystals of hydrate grew”.
For COc1cc2nc(N3CCN(C(=O)c4ccco4)CC3)nc(N)c2cc1OC.Cl [β-form, 2-[4-(2-furoyl)piperazin-1-yl]-4-amino-6,7-dimethoxyquinazoline hydrochloride], the “Water Content” value [3, 6] was 0.59 % by Weight, the “Water Content” value [3, 7] was 1.18 % by Weight and the “Water Content” value [3, 8] was 4.66 % by Weight. The “Water Content” value [3, 9] was 6.06 % by Weight, the “hygroscopicity (in words)” value ([3]; hydrochloride) was “hygroscopic” and the “Intrinsic Dissolution Rate” value ([2]; listed as β-) was 3.36 μg/liter sec. For the same molecule, the “conversion to hydrate on contact” value ([5]; listed as β-) was “sharp needle-like crystals of hydrate grew”.
With COc1cc2nc(N3CCN(C(=O)c4ccco4)CC3)nc(N)c2cc1OC.Cl [γ-form, 2-[4-(2-furoyl)piperazin-1-yl]-4-amino-6,7-dimethoxyquinazoline hydrochloride] the “Water Content” value [3, 6] was 0.16 % by Weight, the “Water Content” value [3, 7] was 4.61 % by Weight and the “Water Content” value [3, 8] was 9.47 % by Weight. For the same molecule, the “Water Content” value [3, 9] was 9.05 % by Weight, the “hygroscopicity (in words)” value ([3]; hydrochloride) was “more hygroscopic then the β-form” and the “change of form on exposure to moisture (in words)” value ([3]; infrared spectrum (KBr) after exposure to moisture) was “formation of a hydrate”. The “Intrinsic Dissolution Rate” value ([2]; listed as γ-) was 2.35 μg/liter sec and the “conversion to hydrate on contact” value ([5]; listed as γ-forms) was “sharp needle-like crystals of hydrate grew”.

From patent publication US4092315A, “Novel crystalline forms of prazosin hydrochloride” (Pfizer Inc., priority 1976, dated 1978)
